In ChEMBL document CHEMBL1201862, “PubChem BioAssay data set” (2004):
Several values for one entry are separate records, joined by “and”; a condition that tells them apart may be missing. Identical values can stand only once. Activity calls are given as the source filed them.

Experiments:
[1] = target: T1, Tyrosine-protein phosphatase non-receptor type 22 (Homo sapiens, UniProt Q9Y2R2); assay: LYP (PTPN22) phosphatase inhibitor potency, SAR follow-up, biochemical, pCAP fluorogenic substrate, fluorescence, set 3 (AID 449727); format: functional
T1 sequence (Q9Y2R2 whole entry): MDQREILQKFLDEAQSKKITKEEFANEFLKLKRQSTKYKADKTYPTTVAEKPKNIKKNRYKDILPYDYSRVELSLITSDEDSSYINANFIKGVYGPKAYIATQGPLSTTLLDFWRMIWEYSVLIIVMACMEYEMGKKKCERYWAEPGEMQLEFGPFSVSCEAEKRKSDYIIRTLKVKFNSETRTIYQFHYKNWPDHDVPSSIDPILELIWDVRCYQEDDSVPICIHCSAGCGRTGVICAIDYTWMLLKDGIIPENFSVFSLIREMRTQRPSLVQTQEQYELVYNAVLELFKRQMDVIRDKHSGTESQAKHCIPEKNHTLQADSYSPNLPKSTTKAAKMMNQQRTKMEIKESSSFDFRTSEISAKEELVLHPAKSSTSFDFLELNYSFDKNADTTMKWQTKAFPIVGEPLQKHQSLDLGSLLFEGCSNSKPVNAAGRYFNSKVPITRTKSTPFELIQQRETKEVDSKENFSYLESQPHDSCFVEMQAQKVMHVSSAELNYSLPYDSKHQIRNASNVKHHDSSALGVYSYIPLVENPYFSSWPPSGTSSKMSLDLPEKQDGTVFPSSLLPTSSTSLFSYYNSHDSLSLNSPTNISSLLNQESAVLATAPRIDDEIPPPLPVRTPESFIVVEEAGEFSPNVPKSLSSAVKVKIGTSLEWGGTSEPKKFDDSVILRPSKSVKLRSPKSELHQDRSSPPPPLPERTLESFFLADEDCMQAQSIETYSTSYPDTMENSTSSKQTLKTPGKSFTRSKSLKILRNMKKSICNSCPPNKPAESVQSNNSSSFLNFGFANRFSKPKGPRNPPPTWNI

[2] = target: T1, Tyrosine-protein phosphatase non-receptor type 22; assay: SAR LYP1 Fluorescent Assay using OMFP substrate for In Vitro dose response studies - Set 3. [Related pubchem assays (depositor defined):AID1779, AID1784, AID2140, AID2686]; format: functional
[3] = target: T2, Tyrosine-protein phosphatase non-receptor type 7 (Homo sapiens, UniProt P35236); assay: HePTP (PTPN7) phosphatase inhibitor potency, SAR follow-up, biochemical, set 2 (AID 449736); format: functional
T2 sequence (P35236 whole entry): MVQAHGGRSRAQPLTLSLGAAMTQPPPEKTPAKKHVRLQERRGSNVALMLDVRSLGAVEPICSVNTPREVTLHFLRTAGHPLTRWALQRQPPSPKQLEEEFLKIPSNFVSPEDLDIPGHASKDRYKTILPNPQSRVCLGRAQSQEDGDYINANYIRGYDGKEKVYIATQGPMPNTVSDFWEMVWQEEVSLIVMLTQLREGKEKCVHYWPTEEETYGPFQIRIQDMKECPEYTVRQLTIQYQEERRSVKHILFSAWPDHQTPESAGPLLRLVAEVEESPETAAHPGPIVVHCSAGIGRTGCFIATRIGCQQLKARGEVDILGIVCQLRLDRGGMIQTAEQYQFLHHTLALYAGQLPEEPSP

[4] = target: Large T antigen (Simian virus 40, UniProt P03070); format: functional, Betapolyomavirus macacae;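 also: Confirmatory-stage PubChem screen for compounds that inhibit SV40 T antigen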
Chain of Large T antigen (P03070 whole entry): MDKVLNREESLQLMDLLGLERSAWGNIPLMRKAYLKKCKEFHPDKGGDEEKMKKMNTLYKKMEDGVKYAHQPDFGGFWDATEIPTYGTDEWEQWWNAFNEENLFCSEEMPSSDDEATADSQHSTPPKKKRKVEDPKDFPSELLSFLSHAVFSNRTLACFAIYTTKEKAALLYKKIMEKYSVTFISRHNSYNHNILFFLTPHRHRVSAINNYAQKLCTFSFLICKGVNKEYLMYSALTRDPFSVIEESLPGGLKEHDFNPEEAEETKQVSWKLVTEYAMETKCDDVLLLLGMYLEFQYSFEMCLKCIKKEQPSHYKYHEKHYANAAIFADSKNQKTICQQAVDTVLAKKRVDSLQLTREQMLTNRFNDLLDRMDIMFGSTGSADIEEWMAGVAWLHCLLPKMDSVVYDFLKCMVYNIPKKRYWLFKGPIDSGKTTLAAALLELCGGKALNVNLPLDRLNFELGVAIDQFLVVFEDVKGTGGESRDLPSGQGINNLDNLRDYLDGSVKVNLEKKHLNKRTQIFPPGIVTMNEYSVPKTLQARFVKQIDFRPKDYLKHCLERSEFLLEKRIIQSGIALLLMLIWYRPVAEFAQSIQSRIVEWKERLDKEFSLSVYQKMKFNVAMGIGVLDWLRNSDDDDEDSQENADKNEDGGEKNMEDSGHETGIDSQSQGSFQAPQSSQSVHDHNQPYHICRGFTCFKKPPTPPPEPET

[5] = target: Induced myeloid leukemia cell differentiation protein Mcl-1 (Homo sapiens, UniProt Q07820); format: functional
Chain of Induced myeloid leukemia cell differentiation protein Mcl-1 (Q07820 whole entry): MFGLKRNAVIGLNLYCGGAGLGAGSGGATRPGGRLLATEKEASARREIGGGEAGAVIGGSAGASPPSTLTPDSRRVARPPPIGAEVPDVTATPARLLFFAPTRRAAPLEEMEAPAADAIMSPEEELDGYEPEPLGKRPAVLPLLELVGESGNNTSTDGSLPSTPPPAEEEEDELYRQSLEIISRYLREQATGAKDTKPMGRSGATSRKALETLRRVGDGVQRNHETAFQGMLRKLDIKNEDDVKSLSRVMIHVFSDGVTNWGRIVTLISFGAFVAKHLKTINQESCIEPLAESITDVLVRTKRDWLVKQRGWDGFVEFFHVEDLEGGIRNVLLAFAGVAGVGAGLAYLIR

[6] = target: Tyrosine-protein phosphatase non-receptor type 12 (Homo sapiens, UniProt Q05209); assay: SAR Selectivity Analysis of small molecule inhibitors of PEST using pCAP in a fluorescence assay. [Related pubchem assays (depositor defined):AID1779, AID1784, AID2135]; format: functional
Chain of Tyrosine-protein phosphatase non-receptor type 12 (Q05209 whole entry): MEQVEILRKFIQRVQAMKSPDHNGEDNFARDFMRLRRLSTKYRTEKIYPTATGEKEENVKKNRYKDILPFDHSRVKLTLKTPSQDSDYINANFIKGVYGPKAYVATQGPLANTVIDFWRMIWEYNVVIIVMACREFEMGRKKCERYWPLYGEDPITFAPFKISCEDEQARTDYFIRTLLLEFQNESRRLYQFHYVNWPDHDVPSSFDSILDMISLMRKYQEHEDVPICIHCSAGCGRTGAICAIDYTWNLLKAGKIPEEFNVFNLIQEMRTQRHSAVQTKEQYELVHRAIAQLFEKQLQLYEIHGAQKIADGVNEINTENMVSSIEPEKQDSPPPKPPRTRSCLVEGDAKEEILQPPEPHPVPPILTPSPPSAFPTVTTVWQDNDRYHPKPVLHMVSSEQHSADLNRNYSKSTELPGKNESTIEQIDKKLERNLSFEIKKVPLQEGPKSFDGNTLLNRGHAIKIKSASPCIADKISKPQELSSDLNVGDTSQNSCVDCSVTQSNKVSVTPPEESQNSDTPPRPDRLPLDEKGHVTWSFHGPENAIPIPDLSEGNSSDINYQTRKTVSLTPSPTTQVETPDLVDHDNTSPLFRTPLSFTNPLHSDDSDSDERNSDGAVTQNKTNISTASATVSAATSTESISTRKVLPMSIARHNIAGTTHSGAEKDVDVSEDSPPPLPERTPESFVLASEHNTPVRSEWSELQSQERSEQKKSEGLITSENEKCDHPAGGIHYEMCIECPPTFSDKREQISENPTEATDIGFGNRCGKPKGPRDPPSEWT

[7] = fluorescence interference artefacts, compound only, dose response, artefact control for cardiac thin filament activator project, biochemical, no RTF in test wells (AID 504697)
[8] = target: Troponin, cardiac muscle (Homo sapiens, UniProt P19429+P45379+P63316); assay: Fluorescence-based biochemical high throughput dose response assay for activators of the calcium sensitivity of cardiac Regulated Thin Filaments (RTF). [Related pubchem assays (depositor defined):AID493008, AID493018, AID504382, AID504383]; format: protein-complex assay
[9] = target: Intestinal-type alkaline phosphatase (Mus musculus, UniProt P24822); assay: PubChem AID 488874; format: functional
Chain of Intestinal-type alkaline phosphatase (Mus musculus, UniProt P24822) (P24822 whole entry): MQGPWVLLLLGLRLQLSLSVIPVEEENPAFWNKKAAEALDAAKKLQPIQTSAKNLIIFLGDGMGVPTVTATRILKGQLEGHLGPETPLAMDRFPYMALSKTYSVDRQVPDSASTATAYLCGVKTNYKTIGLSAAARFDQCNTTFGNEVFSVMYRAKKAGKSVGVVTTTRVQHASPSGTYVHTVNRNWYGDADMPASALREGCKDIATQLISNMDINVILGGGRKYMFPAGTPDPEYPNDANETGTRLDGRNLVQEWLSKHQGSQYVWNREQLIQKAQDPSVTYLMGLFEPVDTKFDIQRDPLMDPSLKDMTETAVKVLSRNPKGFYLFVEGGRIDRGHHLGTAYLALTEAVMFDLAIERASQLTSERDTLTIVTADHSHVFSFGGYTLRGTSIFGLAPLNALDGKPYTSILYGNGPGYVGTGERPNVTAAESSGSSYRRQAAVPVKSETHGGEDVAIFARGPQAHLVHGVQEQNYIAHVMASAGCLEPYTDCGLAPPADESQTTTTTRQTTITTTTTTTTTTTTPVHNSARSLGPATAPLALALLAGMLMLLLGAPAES

[10] = target: T3, Intestinal-type alkaline phosphatase (Homo sapiens, UniProt P09923); assay: human IAP activators, dose response, biochemical, luminescent, uHTS hits, set 2 (AID 488817); format: functional;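 also: potency of activators that raise enzyme activity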
T3 sequence (P09923 whole entry): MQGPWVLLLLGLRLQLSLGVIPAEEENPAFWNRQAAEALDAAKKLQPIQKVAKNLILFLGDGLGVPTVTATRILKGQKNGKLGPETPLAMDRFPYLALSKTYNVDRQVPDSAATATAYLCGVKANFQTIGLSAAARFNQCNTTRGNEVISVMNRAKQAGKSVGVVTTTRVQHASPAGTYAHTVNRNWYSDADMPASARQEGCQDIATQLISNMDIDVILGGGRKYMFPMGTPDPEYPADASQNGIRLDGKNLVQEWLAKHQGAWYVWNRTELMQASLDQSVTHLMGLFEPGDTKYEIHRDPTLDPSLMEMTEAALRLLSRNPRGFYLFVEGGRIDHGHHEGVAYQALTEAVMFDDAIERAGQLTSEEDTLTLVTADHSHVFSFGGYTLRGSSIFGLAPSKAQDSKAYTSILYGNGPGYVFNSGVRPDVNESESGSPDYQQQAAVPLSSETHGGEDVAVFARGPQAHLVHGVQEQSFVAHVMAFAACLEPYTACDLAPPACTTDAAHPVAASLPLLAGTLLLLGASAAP

[11] = target: T3, Intestinal-type alkaline phosphatase; assay: human intestinal alkaline phosphatase activators, dose response, biochemical, luminescence, uHTS hits (AID 463120); format: functional
[12] = target: T4, Exodeoxyribonuclease V (Escherichia coli (strain K12), UniProt P04993+P07648+P08394); assay: E. coli RecBCD inhibitors, dose response, counter-screen for AddAB inhibitor project, absorbance, V66 E. coli, mutant T4 phage (AID 492957); format: functional, cell-based, Escherichia coli str. K-12 substr. MG1655
T4 sequence (P04993 whole entry): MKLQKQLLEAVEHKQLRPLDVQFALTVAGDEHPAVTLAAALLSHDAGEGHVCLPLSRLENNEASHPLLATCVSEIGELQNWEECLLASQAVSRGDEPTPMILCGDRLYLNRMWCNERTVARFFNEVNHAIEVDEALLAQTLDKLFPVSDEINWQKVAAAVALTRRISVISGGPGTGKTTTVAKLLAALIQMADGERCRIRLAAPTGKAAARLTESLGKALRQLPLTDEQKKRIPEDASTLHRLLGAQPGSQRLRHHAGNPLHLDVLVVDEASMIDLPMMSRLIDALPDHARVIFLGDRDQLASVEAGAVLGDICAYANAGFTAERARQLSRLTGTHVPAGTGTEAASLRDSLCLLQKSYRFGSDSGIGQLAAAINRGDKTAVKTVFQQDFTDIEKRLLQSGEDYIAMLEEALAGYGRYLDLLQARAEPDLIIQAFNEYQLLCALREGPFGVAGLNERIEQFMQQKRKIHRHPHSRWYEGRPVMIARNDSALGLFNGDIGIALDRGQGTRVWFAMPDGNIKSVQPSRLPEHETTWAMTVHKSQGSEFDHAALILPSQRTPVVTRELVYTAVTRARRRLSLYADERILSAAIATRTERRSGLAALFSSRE
T4 sequence (P07648 whole entry): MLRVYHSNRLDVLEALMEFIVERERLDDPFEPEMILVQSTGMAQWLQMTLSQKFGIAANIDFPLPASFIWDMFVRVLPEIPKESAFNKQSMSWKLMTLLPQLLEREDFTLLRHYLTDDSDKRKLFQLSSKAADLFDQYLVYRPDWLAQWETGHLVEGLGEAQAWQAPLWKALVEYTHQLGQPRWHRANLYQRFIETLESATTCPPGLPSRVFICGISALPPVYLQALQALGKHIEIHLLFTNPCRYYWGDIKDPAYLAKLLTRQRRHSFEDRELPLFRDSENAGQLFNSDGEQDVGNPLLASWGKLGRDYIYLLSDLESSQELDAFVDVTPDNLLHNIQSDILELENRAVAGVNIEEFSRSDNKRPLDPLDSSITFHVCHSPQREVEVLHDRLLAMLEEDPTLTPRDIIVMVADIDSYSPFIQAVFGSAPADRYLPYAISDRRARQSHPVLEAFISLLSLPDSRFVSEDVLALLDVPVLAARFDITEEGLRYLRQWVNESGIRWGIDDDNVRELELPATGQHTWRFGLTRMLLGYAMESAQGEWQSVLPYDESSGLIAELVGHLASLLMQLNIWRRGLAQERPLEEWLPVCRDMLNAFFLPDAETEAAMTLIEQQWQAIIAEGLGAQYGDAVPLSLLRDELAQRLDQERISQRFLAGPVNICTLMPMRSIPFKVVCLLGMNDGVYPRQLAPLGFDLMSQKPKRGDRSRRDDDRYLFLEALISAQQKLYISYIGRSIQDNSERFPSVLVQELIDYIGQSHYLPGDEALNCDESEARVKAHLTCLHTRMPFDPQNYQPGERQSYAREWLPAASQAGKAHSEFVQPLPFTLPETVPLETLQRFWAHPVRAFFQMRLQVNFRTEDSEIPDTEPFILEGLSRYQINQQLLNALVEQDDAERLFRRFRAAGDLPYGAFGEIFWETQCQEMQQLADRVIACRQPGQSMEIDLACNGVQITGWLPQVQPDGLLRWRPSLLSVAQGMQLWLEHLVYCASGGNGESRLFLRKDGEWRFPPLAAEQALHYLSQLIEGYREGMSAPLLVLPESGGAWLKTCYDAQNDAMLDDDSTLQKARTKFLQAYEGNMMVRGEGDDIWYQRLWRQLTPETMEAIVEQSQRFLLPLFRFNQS
T4 sequence (P08394 whole entry): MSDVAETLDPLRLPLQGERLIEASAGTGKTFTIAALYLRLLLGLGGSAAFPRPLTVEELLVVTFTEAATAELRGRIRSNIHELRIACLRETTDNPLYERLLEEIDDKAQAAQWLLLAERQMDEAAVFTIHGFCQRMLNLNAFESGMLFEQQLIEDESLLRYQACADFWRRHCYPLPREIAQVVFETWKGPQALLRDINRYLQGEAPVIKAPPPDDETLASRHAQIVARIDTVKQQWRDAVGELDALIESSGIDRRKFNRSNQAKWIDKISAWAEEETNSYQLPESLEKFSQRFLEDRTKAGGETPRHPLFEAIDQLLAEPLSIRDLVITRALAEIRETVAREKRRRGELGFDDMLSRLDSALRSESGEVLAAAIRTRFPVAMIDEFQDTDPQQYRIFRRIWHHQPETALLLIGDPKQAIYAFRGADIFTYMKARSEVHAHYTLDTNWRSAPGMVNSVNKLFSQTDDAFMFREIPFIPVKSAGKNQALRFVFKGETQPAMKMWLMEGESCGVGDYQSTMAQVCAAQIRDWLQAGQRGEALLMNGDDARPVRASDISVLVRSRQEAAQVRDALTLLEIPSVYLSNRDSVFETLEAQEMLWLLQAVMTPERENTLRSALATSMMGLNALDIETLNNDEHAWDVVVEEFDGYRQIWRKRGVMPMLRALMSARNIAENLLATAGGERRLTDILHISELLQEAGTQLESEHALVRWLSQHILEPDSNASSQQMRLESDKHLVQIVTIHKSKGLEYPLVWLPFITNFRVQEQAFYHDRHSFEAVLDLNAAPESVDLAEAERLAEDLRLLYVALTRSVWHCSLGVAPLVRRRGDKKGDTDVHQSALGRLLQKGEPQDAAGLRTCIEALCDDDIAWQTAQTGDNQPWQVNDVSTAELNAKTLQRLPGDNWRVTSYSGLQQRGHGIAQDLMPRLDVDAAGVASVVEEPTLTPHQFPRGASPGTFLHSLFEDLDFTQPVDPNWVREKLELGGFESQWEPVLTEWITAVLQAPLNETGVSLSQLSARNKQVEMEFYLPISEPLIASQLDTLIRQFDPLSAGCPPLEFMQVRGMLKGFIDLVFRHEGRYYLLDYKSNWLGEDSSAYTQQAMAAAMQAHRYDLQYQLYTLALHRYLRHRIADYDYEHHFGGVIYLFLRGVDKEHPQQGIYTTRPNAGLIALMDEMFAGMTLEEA

[13] = microbe, parasite or virus in culture; format: functional; settings: Mycobacterium tuberculosis
[14] = target: T5, Endoribonuclease toxin MazF (Escherichia coli K-12, UniProt P0AE70); assay: MazF toxin RNase activators, dose response, biochemical, fluorescence, single-stranded RNA substrate, uHTS hits (AID 588481); format: functional
T5 sequence (P0AE70 whole entry): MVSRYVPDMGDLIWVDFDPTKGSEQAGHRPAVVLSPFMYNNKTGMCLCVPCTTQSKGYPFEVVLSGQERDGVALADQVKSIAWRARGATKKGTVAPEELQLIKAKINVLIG

[15] = Counterscreen for AddAB inhibitors: absorbance-based bacterial cell-based high throughput dose response assay for inhibitors of bacterial viability. [Related pubchem assays (depositor defined):AID435030, AID449728, AID449731, AID488942, AID488955, AID488956]; format: functional
[16] = target: T5, Endoribonuclease toxin MazF; assay: fluorescent RNA oligo signal without MazF, dose response, counter-screen for MazEF activator project, biochemical, fluorescence, single-stranded RNase substrate (AID 588502); format: functional
[17] = target: Heat shock protein HSP 90-alpha (Homo sapiens, UniProt P07900); format: functional, organism-based

## CC(/C=C1\SC(=S)N(CCCC(=O)Nc2ccc(C(=O)O)c(O)c2)C1=O)=C\c1ccccc1
[1]
  IC50: 37.9 µM (active) and 40.9 µM (active)
[2]
  IC50: 49.1 µM (active) and 44.9 µM (active)
[3]
  IC50: 739 nM (active) and 703 nM (active)
[4]
  IC50: > 100 µM (active)
[5]
  IC50: 1.56 µM (active)
[6]
  IC50: 14 µM (active) and 9.91 µM (active)

## N#C/C(=C/c1ccc(-c2ccccc2)o1)c1nc(-c2cccs2)cs1
[7]
  EC50: > 7.94 µM (active)
[8]
  EC50: 615 nM (active)

## C=CCN1C(=O)/C(=N/Nc2ccccc2O)c2ccccc21
[9]
  IC50: 9.81 µM (active)
[10]
  EC50: 378 nM (active)
[11]
  EC50: 8.62 µM (active)
[12]
  IC50: > 118 µM (inactive)
[13]
  CC50: 38.1 µM (active)
[14]
  EC50: > 99 µM (inactive)
[15]
  IC50: 42.8 µM (inactive)
[16]
  EC50: 46.3 µM (inactive)
[17]
  AC50: 10.9 µM (active)
